Measurements: paper PMC2361651 (British Journal of Cancer, 2005)

Legend:
[1] = tested on: coagulation / fibrinolytic pathway; assay: Coagulation parameters and expanded coagulation series in patients; type: in vivo, human
Description: During the dose escalation stage of the protocol, a standard series of coagulation parameters (APPT, INR and fibrinogen) was explored at baseline prior to therapy and every 2 weeks thereafter. In the dose expansion phase of the protocol, in response to the clinical occurrence of two separate venous thrombotic episodes in study patients, an expanded coagulation series was performed.
At each time point, blood was collected in citrated and EDTA tubes (Becton-Dickinson Vacutainer Systems, Europe). The samples from the citrated tubes were immediately centrifuged (at 4°C for 10 min at 3000 r.p.m.) supernatants pooled into inert plastic, centrifuged again (at 4°C, 10 min at 3000 r.p.m.) and the resultant sample stored in inert plastic tubes at −70°C until analysis. The sample taken into EDTA was centrifuged (at 4°C, for 10 min at 3000 r.p.m.), the supernatant decanted into inert plastic tubes and again stored at −70°C until analysis.

[2] = cited from earlier work

## Cc1cc(C)c(/C=C2\C(=O)Nc3ccccc32)[nH]1 [SU5416, Z-3-[(2,4-dimethylpyrrol-5-yl)methylidenyl]-2-indolinone]
[1]; baseline and every 2 weeks
  change in INR, APTT or fibrinogen: No change
[1]; six patients, expanded panel
  reduction in plasmin–anti-plasmin complexes, median change: 12.7 µg/L
  reduction in plasmin–anti-plasmin complexes, range of change: 0 to 36 µg/L
[1]; six patients, expanded panel, recovery at 24 h
  acute increase in plasminogen activator inhibitor (PAI-1) levels, median change: 37.3 IU
[2]; same schedule, sampling from day 1, ref Cropp et al, 1999, Rosen et al
  degree of induction of SU5416 metabolism: 69%
[2]; same twice weekly schedule, ref Rosen et al, 1999
  dose at which DLT (projectile vomiting and severe headache) was reported: 190 mg m^−2
